Assays:
human TRPV1 [1] = target: T1, human TRPV1 (Homo sapiens, UniProt Q8NER1); assay: Acid Activation Assay (pH 5.0, FLIPR intracellular Ca2+, recombinant HEK293 cells); assay type: cell-based; conditions: percentage of maximal pH 5.0-induced response remaining; HEK293 hTRPV1; max concentration 37.5 μM
T1 construct: expressed in transfected cells
In short: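 HEK293 cells stably expressing recombinant hTRPV1 were loaded with calcium dye for 90-120 min at 25° C and pre-treated with compound for 3 min before a pH 5.0 (DPBS/MES) challenge. Peak FLIPR fluorescence over baseline is given as percentage of the maximal pH 5.0-induced response.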

rats [2] = assay: Sodium Iodoacetate-Induced Knee Joint Osteoarthritic Pain Model (hind limb grip force); assay type: in vivo; conditions: rat, 1 hour after administration, 20 days after sodium iodoacetate, read-out: % effect (% return to normalcy of hind limb grip force); for inhibition in vivo at 30 µmol/kg: 30 μmol/kg po single dose
Method: (v) Sodium Iodoacetate-Induced Knee Joint Osteoarthritic Pain Model
Unilateral knee joint osteoarthritis was induced in the rats by a single intra-articular (i.a.) injection of sodium iodoacetate (3 mg in 0.05 mL sterile isotonic saline) into the right knee joint cavity under light isoflurane anesthesia using a 26G needle. […] Pain behavioral assessment of hind limb grip force was conducted by recording the maximum compressive force exerted on the hind limb strain gauge setup, in a commercially available grip force measurement system (Columbus Instruments, Columbus, Ohio). The grip force data was converted to a maximum hindlimb cumulative compressive force (CFmax) (gram force)/kg body weight for each animal. The analgesic effects of test compounds were determined 20 days following the i.a. injection of sodium iodoacetate. The vehicle control group for each compound being tested was assigned 0% whereas the age matched naïve group was assigned as being 100% (normal). The % effect for each dose group was then expressed as % return to normalcy compared to the naïve group. Test compounds were administered orally in 10% ethanol/20% Tween 80/70% polyethylene glycol-400 vehicle at a volume of 2 mL/kg. The assessment of the analgesic effects of test compounds was made 1 hour following oral administration. The assessment of the analgesic effects of test compounds can be made following a single dose or following repeated administration wherein the frequency of dosing is 1 to 2 times daily. The duration of such repeated daily dosing may last for any time greater than one day. A typical duration of repeated daily dosing is about 5 days to about 12 days.

human TRPV1 [3] = target: T1, human TRPV1; assay: Capsaicin Activation Assay (FLIPR intracellular Ca2+, recombinant HEK293 cells); assay type: cell-based; conditions: recombinant HEK293 cells expressing hTRPV1; 50 nM capsaicin; read-out: human TRPV1 capsaicin IC50
rats [4] = assay: Rat Acute Capsaicin-Induced Flinching Behavior; assay type: in vivo; conditions: 100 μmol/kg oral, capsaicin 2.5 μg one hour after compound, five minute observation
Method: (iv) Rat Acute Capsaicin-Induced Flinching Behavior
Rats were placed in individual observation cages. Following an acclimation period of 30 minutes, selected compounds were administered orally at a dose of 100 μmol/kg orally in a vehicle (10% ethanol/20% Tween 80/70% polyethylene glycol-400) at a volume of 2 mL/kg. One hour after administration of the compound, 2.5 μg of capsaicin in a 10 μL solution of 10% ethanol/90% hydroxypropyl-β-cyclodextrin was injected subcutaneously into the dorsal aspect of the right hind paw. The observation cage was then suspended above mirrors in order to facilitate observation. […] The number of flinching behaviors of the injured paw was recorded during the five minute observation period (Gilchrist, H. D.; Allard, B. L.; Simone, D. A.; Enhanced withdrawal responses to heat and mechanical stimuli following intraplantar injection of capsaicin in rats. Pain, 1996, 67, 179-188). The percent reduction in the number of flinching behaviors produced from oral administration of the test compounds relative to control-treated animals (% effect) is reported in Table 2.

T1 sequence (Q8NER1 whole entry): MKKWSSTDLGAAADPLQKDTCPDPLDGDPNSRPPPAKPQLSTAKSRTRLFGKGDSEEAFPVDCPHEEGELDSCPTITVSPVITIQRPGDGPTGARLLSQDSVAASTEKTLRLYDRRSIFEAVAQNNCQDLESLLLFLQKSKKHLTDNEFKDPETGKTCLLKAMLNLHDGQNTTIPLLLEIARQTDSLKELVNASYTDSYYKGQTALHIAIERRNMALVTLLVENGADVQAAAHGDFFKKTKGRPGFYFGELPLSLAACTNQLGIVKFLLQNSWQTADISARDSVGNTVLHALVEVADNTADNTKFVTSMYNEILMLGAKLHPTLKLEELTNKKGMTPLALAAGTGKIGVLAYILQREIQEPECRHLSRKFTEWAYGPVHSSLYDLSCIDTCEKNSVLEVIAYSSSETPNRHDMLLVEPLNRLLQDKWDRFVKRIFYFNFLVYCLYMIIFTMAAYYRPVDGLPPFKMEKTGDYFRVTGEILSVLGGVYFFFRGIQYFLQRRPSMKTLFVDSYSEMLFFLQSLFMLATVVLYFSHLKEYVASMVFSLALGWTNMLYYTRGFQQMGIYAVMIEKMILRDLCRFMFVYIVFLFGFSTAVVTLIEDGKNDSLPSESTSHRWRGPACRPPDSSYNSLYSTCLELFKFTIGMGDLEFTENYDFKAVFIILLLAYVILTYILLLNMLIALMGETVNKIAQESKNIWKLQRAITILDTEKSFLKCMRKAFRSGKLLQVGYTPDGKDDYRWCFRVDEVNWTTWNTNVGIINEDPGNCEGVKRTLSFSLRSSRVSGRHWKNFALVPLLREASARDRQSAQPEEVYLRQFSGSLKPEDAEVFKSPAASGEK

Row | SMILES | human TRPV1 H+ (max % remain) (human TRPV1 [1]) [%] | inhibition in vivo at 100 µmol/kg (rats [2]; 100 μmol/kg po single dose) [%] | IC50 (human TRPV1 [3]) [nM] | inhibition in vivo at 17 µmol/kg (rats [2]; 17 μmol/kg po single dose) [%] | % effect (percent reduction in number of flinching behaviors relative to control-treated animals) (rats [4]) [%] | inhibition in vivo at 30 µmol/kg (rats [2]) [%]
1 | CC1(C)C[C@@H](NC(=O)Nc2cccc3c2C[C@H](O)C3)c2ccc(F)cc2O1 [Example 5, 1-[(4R)-7-fluoro-2,2-dimethyl-3,4-dihydro-2H-chromen-4-yl]-3-[(2R)-2-hydroxy-2,3-dihydro-1H-inden-4-yl]urea] | 76 | 57 | 32 |  |  | 
2 | CC1(C)C[C@@H](NC(=O)Nc2cccc3c2C[C@H](O)C3)c2ccc(Cl)c(F)c2O1 [Example 10, 1-[(4R)-7-chloro-8-fluoro-2,2-dimethyl-3,4-dihydro-2H-chromen-4-yl]-3-[(2R)-2-hydroxy-2,3-dihydro-1H-inden-4-yl]urea] | 74 |  | 27 | 49 |  | 
3 | CC1(C)C[C@@H](NC(=O)Nc2cccc3c2C[C@H](O)C3)c2ccc(F)c(Cl)c2O1 [Example 12, 1-[(4R)-8-chloro-7-fluoro-2,2-dimethyl-3,4-dihydro-2H-chromen-4-yl]-3-[(2R)-2-hydroxy-2,3-dihydro-1H-inden-4-yl]urea] | 77 |  | 36 |  | 53 | 
4 | CC1(C)C[C@@H](NC(=O)Nc2cccc3c2C[C@H](O)C3)c2ccc(Cl)cc2O1 [Example 13, 1-[(4R)-7-chloro-2,2-dimethyl-3,4-dihydro-2H-chromen-4-yl]-3-[(2R)-2-hydroxy-2,3-dihydro-1H-inden-4-yl]urea] | 62 |  | 28 |  |  | 52
5 | O=C(Nc1cccc2c1C[C@H](O)C2)N[C@@H]1CCOc2cc(OC(F)(F)F)ccc21 [Example 14, 1-[(2R)-2-hydroxy-2,3-dihydro-1H-inden-4-yl]-3-[(4R)-7-(trifluoromethoxy)-3,4-dihydro-2H-chromen-4-yl]urea] | 48 |  | 44 |  |  | 54
6 | O=C(Nc1cccc2c1C[C@H](O)C2)N[C@@H]1CCc2cc(C(F)(F)F)ccc21 [Example 40, 1-[(2R)-2-hydroxy-2,3-dihydro-1H-inden-4-yl]-3-[(1R)-5-(trifluoromethyl)-2,3-dihydro-1H-inden-1-yl]urea] | 30 |  | 7 |  |  | 57
7 | C[C@]1(CF)C[C@@H](NC(=O)Nc2cccc3c2C[C@H](O)C3)c2ccc(C(F)(F)F)cc2O1 [Example 43, 1-[(2R,4R)-2-(fluoromethyl)-2-methyl-7-(trifluoromethyl)-3,4-dihydro-2H-chromen-4-yl]-3-[(2R)-2-hydroxy-2,3-dihydro-1H-inden-4-yl]urea] | 48 |  | 18 |  |  | 38
8 | CC1(C)C[C@@H](NC(=O)Nc2cccc3c2C[C@@H](O)C3)c2cccc(OC(F)(F)F)c2O1 [Example 88, 1-[(4R)-2,2-dimethyl-8-(trifluoromethoxy)-3,4-dihydro-2H-chromen-4-yl]-3-[(2S)-2-hydroxy-2,3-dihydro-1H-inden-4-yl]urea] | 23 |  | 16 |  | 69 | 
9 | O=C(Nc1ccc(F)c2c1C[C@@H](O)C2)N[C@@H]1CC(CF)(CF)Oc2c(F)cc(F)cc21 [Example 162, 1-[(4R)-6,8-difluoro-2,2-bis(fluoromethyl)-3,4-dihydro-2H-chromen-4-yl]-3-[(2R)-7-fluoro-2-hydroxy-2,3-dihydro-1H-inden-4-yl]urea] | 50 |  | 3400 |  |  | 
10 | O=C(Nc1ccc(F)c2c1C[C@@H](O)C2)N[C@@H]1CC2(CCC2)Oc2ccc(F)cc21 [Example 163, 1-[(4R)-6-fluoro-3,4-dihydrospiro[chromene-2,1′-cyclobutan]-4-yl]-3-[(2R)-7-fluoro-2-hydroxy-2,3-dihydro-1H-inden-4-yl]urea] | 38 |  | 690 |  |  | 
11 | CC1(C)C[C@@H](NC(=O)Nc2ccc(F)c3c2C[C@@H](O)C3)c2ccccc2O1 [Example 164, 1-[(4R)-2,2-dimethyl-3,4-dihydro-2H-chromen-4-yl]-3-[(2R)-7-fluoro-2-hydroxy-2,3-dihydro-1H-inden-4-yl]urea] | 61 |  | 1500 |  |  | 
12 | CC1(C)C[C@@H](NC(=O)Nc2ccc(F)c3c2C[C@@H](O)C3)c2cc(F)ccc2O1 [Example 165, 1-[(4R)-6-fluoro-2,2-dimethyl-3,4-dihydro-2H-chromen-4-yl]-3-[(2R)-7-fluoro-2-hydroxy-2,3-dihydro-1H-inden-4-yl]urea] | 49 |  | 2600 |  |  | 
13 | CC1(C)C[C@@H](NC(=O)Nc2ccc(F)c3c2C[C@@H](O)C3)c2ccc(F)c(Cl)c2O1 [Example 166, 1-[(4R)-8-chloro-7-fluoro-2,2-dimethyl-3,4-dihydro-2H-chromen-4-yl]-3-[(2R)-7-fluoro-2-hydroxy-2,3-dihydro-1H-inden-4-yl]urea] | 43 |  | 65 |  |  | 
14 | CC1(C)C[C@@H](NC(=O)Nc2ccc(F)c3c2C[C@@H](O)C3)c2ccc(Cl)cc2O1 [Example 167, 1-[(4R)-7-chloro-2,2-dimethyl-3,4-dihydro-2H-chromen-4-yl]-3-[(2R)-7-fluoro-2-hydroxy-2,3-dihydro-1H-inden-4-yl]urea] | 51 |  | 200 |  |  | 
15 | O=C(Nc1ccc(F)c2c1C[C@@H](O)C2)N[C@@H]1CCOc2cc(OC(F)(F)F)ccc21 [Example 168, 1-[(2R)-7-fluoro-2-hydroxy-2,3-dihydro-1H-inden-4-yl]-3-[(4R)-7-(trifluoromethoxy)-3,4-dihydro-2H-chromen-4-yl]urea] | 70 |  | 850 |  |  | 
16 | O=C(Nc1ccc(F)c2c1C[C@@H](O)C2)N[C@@H]1CC(CF)(CF)Oc2ccccc21 [Example 169, 1-[(4R)-2,2-bis(fluoromethyl)-3,4-dihydro-2H-chromen-4-yl]-3-[(2R)-7-fluoro-2-hydroxy-2,3-dihydro-1H-inden-4-yl]urea] | 57 |  | 3400 |  |  | 
17 | O=C(Nc1ccc(F)c2c1C[C@@H](O)C2)N[C@@H]1CC(CF)(CF)Oc2c(F)cccc21 [Example 170, 1-[(4R)-8-fluoro-2,2-bis(fluoromethyl)-3,4-dihydro-2H-chromen-4-yl]-3-[(2R)-7-fluoro-2-hydroxy-2,3-dihydro-1H-inden-4-yl]urea] | 58 |  | 3500 |  |  | 
18 | CC1(C)C[C@@H](NC(=O)Nc2ccc(F)c3c2C[C@@H](O)C3)c2ccc(F)c(F)c2O1 [Example 171, 1-[(4R)-7,8-difluoro-2,2-dimethyl-3,4-dihydro-2H-chromen-4-yl]-3-[(2R)-7-fluoro-2-hydroxy-2,3-dihydro-1H-inden-4-yl]urea] | 47 |  | 400 |  |  | 
19 | O=C(Nc1c(F)ccc2c1C[C@H](O)C2)N[C@@H]1CC(CF)(CF)Oc2cc(Cl)ccc21 [Example 175, 1-[(4R)-7-chloro-2,2-bis(fluoromethyl)-3,4-dihydro-2H-chromen-4-yl]-3-[(2R)-5-fluoro-2-hydroxy-2,3-dihydro-1H-inden-4-yl]urea] | 37 |  | 470 |  |  | 
20 | O=C(Nc1c(F)ccc2c1C[C@@H](O)C2)N[C@@H]1CC(CF)(CF)Oc2cc(Cl)ccc21 [Example 176, 1-[(4R)-7-chloro-2,2-bis(fluoromethyl)-3,4-dihydro-2H-chromen-4-yl]-3-[(2S)-5-fluoro-2-hydroxy-2,3-dihydro-1H-inden-4-yl]urea] | 4 |  | 210 |  |  | 

— patent US8859584B2, “TRPV1 antagonists” (AbbVie Inc., priority 2011, dated 2014)
